The values that follow come from US9661848B2, “Substituted 4-cyan-3-(pyridyl)-4-phenylbutanoates, method for the production thereof and uses as herbicides and plant growth regulators” (BAYER CROPSCIENCE AG, priority 2012, dated 2017).

Test [1] has as its system Avena fatua. As to the kind of experiment: Herbicidal post-emergence action. Format: in vivo. The following applies: post-emergence method; 0.32 kg of active substance per hectare. The procedure: (§1) Seeds of monocotyledonous and dicotyledonous weeds and crop plants were placed in sandy loam in wood-fibre pots, covered with soil and cultivated in a greenhouse under good growth conditions. 2 to 3 weeks after sowing, the test plants were treated at the one-leaf stage, where the compounds (I) according to the invention, formulated in the form of wettable powders (WP), were applied by spraying as aqueous suspension or emulsion at a water application rate of 600 l/ha (converted) with the addition of 0.2% of wetting agent to the green parts of the plants. After the test plants had been kept in the greenhouse under optimum growth conditions for about 3 weeks, the activity of the preparations was rated visually in comparison to untreated controls in per cent (%). For example, 100% activity=the plants have died, 50% herbicidal activity or damage=the plants have been reduced by 50% or the plant mass has been reduced by 50%, 0% activity=like control plants.

The test system of test [2] is Alopecurus myosuroides. Put plainly: Herbicidal post-emergence action. Type of test: in vivo. The following applies: post-emergence method; 0.32 kg of active substance per hectare. As for the experimental part:
as §1

For `COC(=O)C[C@@H](c1cncc(F)c1)[C@H](C#N)c1cccc(F)c1` [erythro-2-Ibb732], the “activity against Avena fatua” value in test [1] is 90-100%. Moreover, the “activity against Alopecurus myosuroides” value in test [2] is listed as 90-100%.
